Counter-ions that a name gives are not always drawn.
Tested on: AB-PINACA antibody (raised against immunogen 2 of Example 6)
Test: AB-PINACA ELISA, final validated kit with Tracer-2 (Example 10), specificity
Format: binding
Conditions: for % Cross-Reactivity: AB-PINACA N-Pentanoic acid = 100
Protocol: A microtitre plates was precoated with AB-PINACA antibody (raised against immunogen 2 of Example 6). Pinaca derivative (antigen), if present in the sample competes with the horseradish peroxidase labelled AB-PINACA (enzyme labelled antigen, herein Tracer-2 of Example 8) for a limited number of antibody sites on the microtitre plate. After incubation at room temperature to allow a competition reaction to take place, the microtitre plate was washed to remove excess reagents. The enzyme substrate ([…]) was added. After an incubation period to allow maximum colour development, the colour reaction was stopped by the addition of acid. This produces a colour change from blue to yellow, and the absorbances are read at 450 nm. A standard curve was then constructed to determine the Pinaca derivative's concentration in the sample.
All reagents were left to reach room temperature (+15 to +25° C.) prior to use. In order to minimise edge effects microtitre plate was sealed with an adhesive plate sealer.
The assay was performed in duplicate. The following layout was used for a test plate where each box represents 2 wells.
• a) The following was pipetted into the appropriate wells of the microtitre plate:
• b) The microtitre plate was gently tapped plate from side to side for a few seconds. • c) The microtitre plate was covered with a plate sealer before incubating for 30 minutes at room temperature (+15 to +25° C.) in the dark. • d) The plate was inverted and the liquid was tapped out. • e) The plate was washed 6 times with diluted wash buffer (ensuring all wells were filled), over a 10-15 minute period. After the final wash the liquid was discarded and the plate was tapped onto lint free tissue paper until completely dry. • f) Immediately after washing, 125 μL of the one shot substrate II solution was pipetted into each well using a multichannel pipette. The microtitre plate was gently tapped from side to side and incubated for (20±2 minutes) at room temperature (+15 to +25° C.) in the dark. • g) The colour reaction was stopped by the addition of 100 μL of stop solution per well. A colour change from blue to yellow should be evident. • h) The optical density was measured at 450 nm within 10 minutes of stopping the colour reaction. The use of a 630 nm filter is recommended as the reference wavelength, if available. Standard Curve and Interpretation of Results • a) The mean absorbance of the standards, controls and samples were calculated. • b) The absorbances of standards against log10 (standard concentration) were plotted. • c) The control and sample concentrations were read from the standard curve. • d) To obtain concentrations for urine samples in ng/mL, the results were multiplied by 3 to take into account the dilution factor. • e) To obtain concentrations for whole blood samples in ng/mL, the results were multiplied by 4 to take into account the dilution factor. • f) It is recommended that a 4 parameter curve fit method is used when generating the standard curve. Limits of Detection

With `CCCCCn1cc(C(=O)Oc2cccc3cccnc23)c2ccccc21` [PB-22] the “Concentration of compounds that elicit a negative response at the indicated concentration” value (“Concentration” below) was 100 ng/mL.
In the case of `CC(C)NCC(O)COc1cccc2ccccc12` (centres unmarked) [Propranolol HCL], the “Concentration” value is reported as 10000 ng/mL.
For `CCCCCn1cc(C(=O)c2ccc(OC)cc2)c2ccccc21` [RCS-4], the “% Cross-Reactivity” value was less than 1%.
With `COc1ccccc1CC(=O)c1cn(CCC2CCCCC2)c2ccccc12` [RCS-8] the “Concentration” value was 100 ng/mL.
In the case of `CNC(=C[N+](=O)[O-])NCCSCc1ccc(CN(C)C)o1` [Ranitidine HCl], the “Concentration” value is reported as 10000 ng/mL.
`O=C(O)CCCCn1cc(C(=O)NC23CC4CC(CC(C4)C2)C3)c2ccccc21` [SDB-001 N-Pentanoic acid] was tested, and the “% Cross-Reactivity” value was less than 1%.
With `O=C(NC12CC3CC(CC(C3)C1)C2)c1cn(CCCCCF)c2ccccc12` [STS-135] the “Concentration” value was 100 ng/mL.
For `O=C(c1cccc2ccccc12)c1nn(CCCCCF)c2ccccc12` [THJ 2201], the “Concentration” value was 100 ng/mL.
`CC1(C)C(C(=O)c2cn(CCCCC(=O)O)c3ccccc23)C1(C)C` [UR-144 N-Pentanoic acid] was tested, and the “Concentration” value was 100 ng/mL.
For `CCCCCn1cc(C(=O)C2C(C)(C)C2(C)C)c2ccccc21` [UR-144], the “Concentration” value was 100 ng/mL.
With `CC1(C)C(C(=O)c2cn(CCCCCF)c3ccccc23)C1(C)C` [XLR-11] the “Concentration” value was 100 ng/mL.

— patent US10509046B2, “Detection of indazole synthetic cannabinoids” (Randox Laboratories Limited, priority 2014, dated 2019)
